Where two headings read alike, the source gives them in different places.
How the values were obtained:
Male CF1 mice = assay: Mouse antiphenylquinone writhing (PQW) test; format: in vivo; details: Table 3; for ED50: Mus musculus, 0.5 h, phenylquinone 1.25 mg/kg i.p., observation beginning 30 min after injection of test compound
Procedure: The anti-pheylquinone writhing (PQW) test modified from the methods of Siegmund et al. (Proc. Soc. Exp. Biol. Med. 95: 729-731, 1957) and Blumberg et al. (Proc. Exp. Biol. Med. 118: 763-767, 1965) was used to assess analgesia in mice. Male CF1 mice (Charles River Breeding Laboratories, Wilmington, MA), fasted for 16-22 h and weighing 18-23 g, were injected with randomized and coded doses of test compounds, then challenged with 1.25 mg/kg i.p. phenyl-p-benzoquinone (phenylquinone) 5 min prior to the specified observation time. The phenylquinone solution (0.1 mg/ml in 5% aqueous ethanol) was prepared daily and stored in foil-wrapped amber bottles to limit degradation. Mice were observed 10 min for the presence or absence of the characteristic abdominal constriction and stretching response beginning 30 min after injection of the test compound. Analgetic activity was calculated as the percentage of mice failing to respond to the phenylquinone challenge dose. […] Median effective doses (ED50's) and 95% confidence limits were determined numerically by the methods of Thompson (Bacteriological Rev. 11: 115-145, 1947), and Litchfield and Wilcoxon (J. Pharmacol. Exp. Ther. 96: 99.113, 1949).
The data shown in Table show the PQW ED₅₀ values for the compounds of the aforesaid examples.
Table 4 illustrates that the 3° carbinols within the scope of U.S. 4,485,109 have utility as analgesic agents.

Male CF mice = assay: Antagonism of tetrabenazine-induced depression (exploratory loss and ptosis) in mice; format: in vivo; details: Mus musculus, po, 1 h, orally, one hour post-drug, tetrabenazine methane sulfonate 52 mg/kg i.p.
Source text: The prevention of tetrabenazine-induced sedation and depression in mice is a standard procedure used to detect and compare antidepressant compounds. The activity of antidepressant compounds in this procedure correlates well with human efficacy. (Barnett, et al., Int. J. Neuropharmac. 8: 73-79, 1969, and Vernier, et al., "The Pharmacodynamics of Amitriptyline" in Psychsomatic Medicine (Nodine & Moyer, editors) pp. 683-690, 1962).
Male CF mice (Charles River Breeding Laboratories, Wilmingon, MA), fasted for 16-22 hours and weighing 18-25 g, were injected with randomized and coded does of test compounds, then challenged with 52 mg/kg i.p. tetrabenazine methane sulfonate 30 minutes prior to the specified observation time. The tetrabenazine methane sulfonate solution (5.2 mg/ml in distilled water) was prepared daily and stored in foil-wrapped amber bottles to limit degradation. […] Exploratory loss was defined as failing to move to the perimeter of a 12.7 cm (5 inch) (12.7 cm) circle within 15 seconds of being placed at the center of the circle. Ptosis was defined as both eyelids closed 50% or more compared to normal. Antidepressant activity was calculated as the percentage of mice failing to respond to the tetrabenazine challenge dose. […] Median effective does (ED₅₀'s) were estimated using the Moving Average method of Thompson (Bacteriological Rev. 11: 115-145, 1947).
The data in Table 5 show ED₅₀ values for the compounds of the aforesaid examples.

Male mice = assay: Anorexia test from CNS screen (consumption of sweetened condensed milk spots); format: in vivo; details: Mus musculus; fasted male mice, oral doses, 0.5 h after administration, 10 min access to milk; read-out: ED₅₀ for Anorexia
Procedure: Male mice weighing 18-25 grams and fasted over-night for 17-21 h were used in these studies. At 0.5 h after administration of graded oral doses of compound prepared in aqueous Methocel® (methylcellulose, viscosity 100 mPa·s (CPS), grade A15C, Dow Chemical Co.) and dosed at 0.1 ml per 10 grams of body weight, each mouse was transferred to an individual, clear, Lucite® compartment (13.3 cm x 12.7 cm x 12.7 cm) with a wire mesh floor having 0.64 cm x 0.64 cm openings. Five compartments were linearly arranged in each cage unit. Inside each compartment was a section of a black Lucite® bar (13 cm x 1.2 cm x 1.2 cm), in the top of which were ten spot depressions (0.8 cm diameter), each containing 0.05 ml of 50% sweetened condensed milk. Ten (10) minutes later the mice were removed from to the compartments and the number of milk spots consumed by each mouse was counted. Fractions of spots consumed were also estimated and counted. Data were expressed as % decrease from control. ED₅₀ values were estimated using linear regression analysis.

[1] = literature statement (A. L. Morrison et al., J.Chem. Soc., 1467, 1950); cited from earlier work
[2] = po, p.o., read-out: Mouse PQW ED₅₀ (Mg/Kg) P.O
[3] = sc, s.c., read-out: Mouse PQW ED₅₀ (Mg/Kg) S.C
[4] = read-out: Oral ED₅₀ (mg/kg) for Prevention of Ptosis

SMILES | ED50 (Male CF1 mice; [2]) [mg/kg] | ED50 (Male CF1 mice; [3]) [mg/kg] | ED50 (Male CF mice; read-out: Oral ED₅₀ (mg/kg) for Prevention of Exploratory Loss) [mg/kg] | ED50 (Male CF mice; [4]) [mg/kg] | ED50 (Male mice) [mg/kg] | analgesic activity compared with the parent ketones [1] | Mouse PQW remark (Male CF1 mice; remark beside S.C and P.O values)
CC(O)C1(c2cccc(Cl)c2)CCN(C)CC1 (stereo not drawn) [Example 1, 4-(3'-Chlorophenyl)-α,1-dimethyl-4-piperidinemethanol] | 19 | 8.1 | 0.92 | 0.74 | 20 | – | –
CC(O)C1(c2ccccc2)CCN(C)CC1 (stereo not shown) [Example 3, 4-phenyl-1-methyl-4-(1-hydroxyethyl)piperidine] | 38 | 19 | – | – | – | much less active as analgesics than the parent ketones | –
CC(O)C1(c2ccc(C(F)(F)F)cc2)CCN(C)CC1 (stereo not drawn) [Example 16, 4(4'-Trifluoromethylphenyl)-α-1-dimethylpiperidinemethanol] | > 81 | > 81 | – | 28 | 22 | – | Inactive

Source: patent publication EP0337167B1, “4-Aryl-4-piperidine (or pyrrolidine or hexahydroazepine) carbinols and heterocyclic analogs thereof” (THE DU PONT MERCK PHARMACEUTICAL COMPANY, priority 1988, dated 1989)
